The nature of the data set: Viscometric properties (oscillatory rheology, shear sweep). Format: physicochemical. How it is done:
The molecular weight of trisilanol i-octyl POSS® at 1184 g/mol, is generally equivalent to that of common silicone oligomers. In comparison to telechelic silanol polydimethylsiloxanes, trisilanol i-octylPOSS is unique in terms of its high viscosity (27 Pa·s at 24° C.) relative to the 4.3 wt % of silanol it contains. Telechelic silanol polydimethylsiloxanes and diphenyl-siloxane-dimethyl-siloxane copolymers with equivalent silanol contents are generally low viscosity fluids
Oscillatory rheology was utilized to determine the viscometric characteristics of i-octylPOSS trisilanol versus mixtures containing solid hemostatic agents suspended in the carrier fluid, i-octylPOSS trisilanol. The solid hemostatic agents utilized for these tests were chitin and kaolin. Shear sweep measurements of viscosity at 37° C. over the range of 0.01-100 s^−1 were deemed adequate to assess reproducibility of the hemostat agent mixtures.
It is non-Newtonian attributes are evidenced by a reduction of viscosity relative to shear rate. The shear thinning behavior is useful as it enables the hemostat to be syringable or pourable yet to remain in place once deposited onto a wound. Desirably, the viscosity of this hemostat can be controlled simply by increasing or decreasing the amount of kaolin incorporation.
A similar viscosity test was performed using chitin as the solid hemostatic additive.

For the substance “trisilanol hepta-isoOctyl POSS [i-octylPOSS trisilanol]”, under “at 24° C.”, the viscosity was determined as 27 Pa·s. Further, the “rheological behaviour (viscosity relative to shear rate)” value (shear sweep 0.01-100 s^−1 at 37° C.) is reported as “Newtonian fluid”.

These data come from US12642886B2, “POSS viscoelastic hemostatic agents” (Hybrid Plastics, Incorporated, priority 2019, dated 2026).
